According to ChEMBL document CHEMBL1133386, “Synthesis and antitumor activities of 5-methyl-1- and 2-[[2-dimethylaminoethyl]amino]-aza-thiopyranoindazoles” (Bioorg Med Chem Lett, 2000):
Values after ≈ are worked out from the molar mass of the structure shown.

Tests used:
[1] = Resistance index was determined by ratio of cytotoxicities of human colon adenocarcinoma (LoVo) cells to human colon adenocarcinoma resistant to doxorubicin (LoVo Dx) cells.; assay type: functional
[2] = In vitro cytotoxic activity against sarcoma resistant to doxorubicin S-180 Dx cells.; assay type: functional, cell-based; settings: Mus musculus
[3] = test system: LoVo; assay: In vitro cytotoxic activity against human colon adenocarcinoma resistant to doxorubicin (LoVo Dx) cells.; assay type: functional, cell-based
[4] = test system: L1210; assay: In vitro cytotoxic activity against murine leukemia L1210 cells.; assay type: functional, cell-based; settings: Mus musculus
[5] = In vitro cytotoxic activity against sarcoma S-180 cells.; assay type: functional, cell-based; settings: Mus musculus
[6] = test system: LoVo; assay: In vitro cytotoxic activity against human colon adenocarcinoma (LoVo) cells.; assay type: functional, cell-based
[7] = test system: LoVo; assay: In vitro cytotoxic activity against human colon adenocarcinoma (LoVo) cells; assay type: functional, cell-based
[8] = test system: LoVo; assay: In vitro cytotoxic activity against human colon adenocarcinoma resistant to doxorubicin (LoVo Dx) cells; assay type: functional, cell-based

| SMILES | Resistance index [1] | IC50 [2] [mg/L] | IC50 [3] [mg/L] | IC50 [4] [mg/L] | IC50 [5] [mg/L] | IC50 [6] [mg/L] | IC50 [7] [mg/L] | IC50 [8] [mg/L] |
| --- | --- | --- | --- | --- | --- | --- | --- | --- |
| Cc1ccc2c3c(nn2CCN(C)C)-c2ccncc2Sc13 | 1 | 0.7 (≈ 2.25 µM) | 2.3 (≈ 7.41 µM) | 0.045 (≈ 0.145 µM) | 0.08 (≈ 0.258 µM) | 2.3 (≈ 7.41 µM) |  |  |
| Cc1ccc2c3c(nn2CCN(C)C)-c2cnccc2Sc13 | 4.5 | 0.009 (≈ 0.029 µM) | 0.018 (≈ 0.058 µM) | 0.0006 (≈ 0.00193 µM) | 0.003 (≈ 0.00966 µM) | 0.004 (≈ 0.0129 µM) |  |  |
| Cc1ccc2c3c(nn2CCN(C)C)-c2cccnc2Sc13 | 1.1 | 0.62 (≈ 2 µM) | 3.3 (≈ 10.6 µM) | 0.08 (≈ 0.258 µM) | 0.46 (≈ 1.48 µM) | 3.1 (≈ 9.99 µM) |  |  |
| Cc1ccc2nn(CCN(C)C)c3c2c1Sc1ccccc1-3 |  | 0.75 (≈ 2.42 µM) |  | 0.25 (≈ 0.808 µM) | 0.5 (≈ 1.62 µM) |  |  |  |
| O=C1c2c(O)ccc(O)c2C(=O)c2c(NCCNCCO)ccc(NCCNCCO)c21 [MITOXANTRONE] | 27 |  | 0.62 (≈ 1.39 µM) |  |  |  | 0.023 (≈ 0.0517 µM) |  |
| Cc1ccc2nn(CCN(C)C)c3c2c1Sc1ncccc1-3 |  | 0.33 (≈ 1.06 µM) |  | 0.26 (≈ 0.838 µM) | 0.3 (≈ 0.966 µM) |  |  |  |
| Cc1ccc2nn(CCN(C)C)c3c2c1Sc1cnccc1-3 |  | 0.4 (≈ 1.29 µM) |  | 0.25 (≈ 0.805 µM) | 0.35 (≈ 1.13 µM) |  |  |  |
| Cc1ccc2c3c(nn2CCN(C)C)-c2ccccc2Sc13 | 2.4 |  |  | 0.07 (≈ 0.226 µM) |  |  | 0.7 (≈ 2.26 µM) | 1.7 (≈ 5.49 µM) |
| COc1cccc2c1C(=O)c1c(O)c3c(c(O)c1C2=O)C[C@@](O)(C(=O)CO)C[C@@H]3O[C@H]1C[C@H](N)[C@H](O)[C@H](C)O1 [DOXORUBICIN] | 97 |  |  |  |  |  | 0.52 (≈ 0.957 µM) |  |
